# Like-named read-outs stand apart in the source and are kept apart here.
# System: L1210 tumor cells
# Conditions: 30 mg/Kg s.c. methionine-enkephalin where combined
# From the text: Groups of BDF1 female mouse strain (16-20 gms) were inoculated with L1210 (leukemia) tumor cells (1×10^4, 1×10^3, or 1×10^2 cells) and observed for survival. The L1210 line of tumor cells was maintained in DBA/2 host mice. Ascitic fluid from the DBA/2 mice was used to inoculate the BDF1 mice transferred in RPMI 1640 buffer at pH 8-9).
# In order to test for any synergistic effect of using an endogenous enkephalin with a known chemo-therapeutic agent, a study involving the inoculation of groups of mice with massive doses (1×10^6 ) of L1210 tumor cells was performed in a manner analogous to the previous examples transferred in RPMI 1640 at pH 7.
smiles,measurement,setting,value
"N.N.[Cl][Pt][Cl] [Cis-platin, cis-platin]",cumulative dead,"2 mg/Kg cis-platin, day 9",3/20
same,cumulative dead,"2 mg/Kg cis-platin, day 10",13/20
same,cumulative dead,"2 mg/Kg cis-platin, day 11",14/20
same,cumulative dead,"2 mg/Kg cis-platin, day 12",15/20
same,cumulative dead,"2 mg/Kg cis-platin, day 13",17/20
same,cumulative dead,"2 mg/Kg cis-platin, day 14",19/20
same,Median Day of Death (ED50),"2 mg/Kg cis-platin, saline control 9 Days",10 days
same,cumulative dead,"4 mg/Kg cis-platin, day 11",10/20
same,cumulative dead,"4 mg/Kg cis-platin, day 12",15/20
same,cumulative dead,"4 mg/Kg cis-platin, day 13",19/20
same,cumulative dead,"4 mg/Kg cis-platin, day 15",20/20
same,Median Day of Death (ED50),"4 mg/Kg cis-platin, saline control 8 Days",10 days
same,Median Day of Death (ED50),"8 mg/Kg cis-platin, saline control 8 days",12 days
same,cumulative dead,"single dose 8 mg/Kg cis-platin, day 9",2/20
same,cumulative dead,"single dose 8 mg/Kg cis-platin, day 12",4/20
same,cumulative dead,"single dose 8 mg/Kg cis-platin, day 13",7/20
same,cumulative dead,"single dose 8 mg/Kg cis-platin, day 14",12/20
same,cumulative dead,"single dose 8 mg/Kg cis-platin, day 15",16/20
same,cumulative dead,"single dose 8 mg/Kg cis-platin, day 16",18/20
same,cumulative dead,"single dose 8 mg/Kg cis-platin, day 18",19/20
same,cumulative dead,"single dose 8 mg/Kg cis-platin, day 20",20/20

# Reference: US4801614A, “Process for using endogenous enkephalins and endorphins to inhibit growth of tumerous cells” (TNI Pharmaceuticals, Inc., priority 1987, dated 1989)
